Data taken from paper PMC4163640 (2014).

Key:
Experiment in all cases: fluorescence titration
[1] = test system: G4 (DNA, G4) TTTTGGGGTTTT; conditions: K+ 10 mM, Mg2+ 1 mM; 50 mM Tris-borate pH 8.3 (TB), 25 °C; 1:1 model
[2] = test system: G8 (DNA, G4) TTTTGGGGGGGGTTTT; conditions: K+ 10 mM, Mg2+ 1 mM; 50 mM Tris-borate pH 8.3 (TB), 25 °C; 1:1 model
[3] = test system: G4T4G4 (DNA, G4) GGGGTTTTGGGG; conditions: K+ 5 mM, Li+ 95 mM; 10 mM lithium cacodylate pH 7.2 (5K), 25 °C; 1:1 model

How did the Ka [1] turn out when `CCc1c(C)c2cc3nc(cc4nc(cc5c(CC)c(C)c(cc1[nH]2)n5C)C(C)=C4CCC(=O)O)C(CCC(=O)O)=C3C` was run?
The Ka was “(1.4 ± 0.2) × 10^6 L·mol^-1”.

And the Ka [2]?
Its Ka is “(1.7 ± 0.2) × 10^6 L·mol^-1”.

And the Ka [3]?
The Ka was “(1.26 ± 0.07) × 10^7 L·mol^-1”.
